Data: US12678446B2 (PFIZER INC., priority 2020, dated 2026)
Like-named read-outs stand apart in the source and are kept apart here.

Experiments:
[1] = test system: RSV (RSV A2 ECACC, 0709161v); experiment: RSV plaque reduction assay; format: cell-based, respiratory syncytial virus
How it was run: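 Eight-point compound dilutions were premixed with RSV A2 (100 PFU/well) and applied to confluent Hep-G2 cells for 2 h, followed by a 2-day incubation at 37° C. under compound-containing 0.8% CMC overlay. EC50 comes from immunostained plaque counts relative to untreated virus wells, averaged over ≥2 runs.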

[2] = test system: Hep-G2 cells; experiment: cell toxicity CC50; format: cell-based; settings: mean of at least two experiments, read-out: Cell Cytotoxicity CC50
[3] = read-out: RSV A2 Plaque EC50; RSV A2 in Hep-G2 cells; mean of at least two experiments unless noted (n = 1)
[4] = RSV A2 in Hep-G2 cells; mean of at least two experiments unless noted (n = 1); read-out: RSV A2 Plaque EC50

| Compound | EC50 [1, 3] | CC50 [2] | EC50 [1, 4] |
| --- | --- | --- | --- |
| O=C(N[C@H]1N=C(c2ccccc2)c2cccc(F)c2NC1=O)c1c(-c2c(F)cccc2F)nn2c1OC(CO)CC2 (single isomer, unassigned) [Example 189-2, (5S*)-2-(2,6-Difluorophenyl)-N-[(3S)-9-fluoro-2-oxo-5-phenyl-1,3-dihydro-1,4-benzodiazepin-3-yl]-5-(hydroxymethyl)-6,7-dihydro-5H-pyrazolo[5,1-b][1,3]oxazine-3-carboxamide] | 72 nM | > 25 µM |  |
| O=C(N[C@H]1N=C(c2ccccc2)c2cccc(F)c2NC1=O)c1c(-c2ccccc2F)nn2c1OCC(CO)C2 (single isomer, unassigned) [Example 110-2, (6S*)-N-[(3S)-9-fluoro-2-oxo-5-phenyl-1,3-dihydro-1,4-benzodiazepin-3-yl]-2-(2-fluorophenyl)-6-(hydroxymethyl)-6,7-dihydro-5H-pyrazolo[5,1-b][1,3]oxazine-3-carboxamide] | 61 nM | > 25 µM |  |
| (5R)-2-[1- (Difluoromethyl)pyra- zol-4-yl]-N-[(3S)-9- fluoro-2-oxo-5- phenyl-1,3-dihydro- 1,4-benzodiazepin-3- yl]-5-methyl-6,7- dihydro-5H- pyrazolo[5,1- b][1,3]oxazine-3- carboxamide [Example 120] |  | > 25 µM | 97 nM |
| N-[(3S)-9-fluoro-2- oxo-5-phenyl-1,3- dihydro-1,4- benzodiazepin-3-yl]- 2-(2-fluorophenyl)- 6-(pyrrolidin-1- ylmethyl)-6,7- dihydro-5H- pyrazolo[5,1- b][1,3]oxazine-3- carboxamide [Example 182] |  | 20.1 µM | 78 nM |
| O=C(N[C@H]1N=C(c2ccccc2)c2cccc(F)c2NC1=O)c1c(-c2ccccc2F)nn2c1OC(CO)CC2 (single isomer, unassigned) [Example 190-2, (5S*)-2-(2-Fluorophenyl)-5-(hydroxymethyl)-N-[(3S)-9-fluoro-2-oxo-5-phenyl-1,3-dihydro-1,4-benzodiazepin-3-yl]-6,7-dihydro-5H-pyrazolo [5,1-b][1,3]oxazine-3-carboxamide] | 154 nM | > 25 µM |  |
| O=C(N[C@H]1N=C(c2ccccc2)c2ccccc2NC1=O)c1c(-c2c(F)cccc2F)nn2c1OC(CO)CC2 (single isomer, unassigned) [Example 188-2, (5S*)-2-(2,6-Difluorophenyl)-5-(hydroxymethyl)-N-[(3S)-2-oxo-5-phenyl-1,3-dihydro-1,4-benzodiazepin-3-yl]-6,7-dihydro-5H-pyrazolo[5,1-b][1,3]oxazine-3-carboxamide] | 281 nM | > 25 µM |  |
| (5R)-N-[(3S)-9- fluoro-2-oxo-5- phenyl-1,3-dihydro- 1,4-benzodiazepin-3- yl]-5-methyl-2-[1- (oxan-4-yl)pyrazol- 4-yl]-6,7-dihydro- 5H-pyrazolo[5,1- b][1,3]oxazine-3- carboxamide [Example 111] |  | > 25 µM | 64 nM |
| (5R)-2-(2-Fluoro-6-methylpyridin-3-yl)-5-methyl-N-[(3S)-2-oxo-5-phenyl-1,3-dihydro-1,4-benzodiazepin-3-yl]-6,7-dihydro-5H-pyrazolo[5,1-b][3,1]oxazine-3-carboxamide [Example 72] |  | > 25 µM | 100 nM |
| 2-(2,6-Difluorophenyl)-N-[(3S)-9-fluoro-2-oxo-5-phenyl-1,3-dihydro-1,4-benzodiazepin-3-yl]-6,7-dihydro-5H-pyrazolo[5,1-b][1,3]oxazine-3-carboxamide [Example 196] |  | > 25 µM | 25 nM |
| O=C(N[C@H]1N=C(c2ccccc2)c2cccc(F)c2NC1=O)c1c(-c2c(F)cccc2F)nn2c1OCC(CO)C2 (single isomer, unassigned) [Example 129-2, (6S*)-2-(2,6-Difluorophenyl)-N-[(3S)-9-fluoro-2-oxo-5-phenyl-1,3-dihydro-1,4-benzodiazepin-3-yl]-6-(hydroxymethyl)-6,7-dihydro-5H-pyrazolo[5,1-b][1,3]oxazine-3-carboxamide] | 73 nM | > 25 µM |  |
| N-[(3S)-9-fluoro-2- oxo-5-phenyl-1,3- dihydro-1,4- benzodiazepin-3-yl]-2- (2-fluorophenyl)-6- (morpholin-4- ylmethyl)-6,7-dihydro- 5H-pyrazolo[5,1- b][1,3]oxazine-3- carboxamide [Example 173] |  | > 25 µM | 91 nM |
| 2-[2-Fluoro-4- (hydroxymethyl)phe- nyl]-N-[(3S)-9- fluoro-2-oxo-5- phenyl-1,3-dihydro- 1,4-benzodiazepin-3- yl]-6,7-dihydro-5H- pyrazolo[5,1- b][1,3]oxazine-3- carboxamide [Example 134] |  | > 25 µM | 83 nM |
| N-[(3S)-9-fluoro-2- oxo-5-phenyl-1,3- dihydro-1,4- benzodiazepin-3-yl]- 2-(2-fluorophenyl)- 6-(hydroxymethyl)- 6,7-dihydro-5H- pyrazolo[5,1- b][1,3]oxazine-3- carboxamide [Example 110] |  | > 25 µM | 51 nM |
| N-[(3S)-9-fluoro-2- oxo-5-phenyl-1,3- dihydro-1,4- benzodiazepin-3-yl]- 2-(2-fluorophenyl)- 6-(methoxymethyl)- 6,7-dihydro-5H- pyrazolo[5,1- b][1,3]oxazine-3- carboxmaide [Example 113] |  | > 19.4 µM | 53 nM |
| CCNc1ccc(-c2nn3c(c2C(=O)N[C@H]2N=C(c4ccccc4)c4cccc(F)c4NC2=O)OCCC3)c(F)n1 [Example 3, 2-[6-(Ethylamino)-2-fluoropyridin-3-yl]-N-[(3S)-9-fluoro-2-oxo-5-phenyl-1,3-dihydro-1,4-benzodiazepin-3-yl]-6,7-dihydro-5H-pyrazolo[5,1-b][1,3]oxazine-3-carboxamide] |  | > 25 µM | 20 nM |
| tert-butyl N-[3- [[(3S)-9-fluoro-2- oxo-5-phenyl-1,3- dihydro-1,4- benzodiazepin-3- yl]carbamoyl]-2-(2- fluorophenyl)-6,7- dihydro-5H- pyrazolo[5,1- b][1,3]oxazin-6-yl]- N-methylcarbamate [Example 107] |  | > 25 µM | 93 nM |
| (5R)-N-[(3S)-9- fluoro-2-oxo-5- phenyl-1,3-dihydro- 1,4-benzodiazepin-3- yl]-5-methyl-2-(1- propan-2-ylpyrazol- 4-yl)-6,7-dihydro- 5H-pyrazolo[5,1- b][1,3]oxazine-3- carobxamide [Example 112] |  | > 25 µM | 50 nM |
| (5R)-2-[2-Fluoro-4- (hydroxymethyl)phe- nyl]-N-[(3S)-9- fluoro-2-oxo-5- phenyl-1,3-dihydro- 1,4-benzodiazepin-3- yl]-5-methyl-6,7- dihydro-5H- pyrazolo[5,1- b][1,3]oxazine-3- carboxamide [Example 153] |  | > 25 µM | 63 nM |
